Results published in publication PMC13183915, “A platinum butterfly effect: small changes turn an anticancer drug into a non-toxic metalloantibiotic with in vivo efficacy” (npj Antimicrobials and Resistance, 2026).
“And” between values parts separate entries of the source, which are not always exact repeats. Equal entries are not always repeated.

Tests used:
S. aureus ATCC 29213 [1] = assay: Post antibiotic effect (PAE); format: cell-based; conditions: for Time for 1 log10 increase in bacterial cfu count: 1 h exposure
Description: Post antibiotic effect (PAE) was determined as follows. […] Following incubation, cultures were centrifuged and washed twice with pre-warmed MHBII to remove any traces of antibiotics. Finally, cells were resuspended in drug-free MHBII and incubated further at 37 °C. Samples were taken every 1 h, serially diluted, and plated on tryptic soy agar (TSA) for enumeration of CFU. […] CFU observed immediately after the removal of the drug, and C in a similarly treated drug-free control.

Escherichia coli W3110 = assay: MIC assay, E. coli; format: cell-based; conditions: Table S1, unit not given; method: starting concentration 100 μM
[2] = test system: RpoC-GFP (B. subtilis 1048); assay: Localization of RpoC-GFP (transcription reporter); format: cell-based, Bacillus subtilis; conditions: 3.12 µM Pt1, 25 µM Pt8; 30 and 60 min
Description: B. subtilis strains were grown in LB containing appropriate inducer concentrations as specified in Table S10. After reaching an OD600 of 0.3, cultures were split and treated with antibiotics. Samples were withdrawn after 30 and 60 min of treatment, spotted on glass slides covered with 1% agarose films, and immediately imaged.
Figure S9: Localization of RpoC-GFP (B. subtilis 1048). Cultures were treated with 3.12 µM
(1 picture or pasted object on this page, not shown here)

MRSA NRS 194 = assay: Broth microdilution MIC, MRSA NRS 194; format: cell-based, S. aureus; conditions: MRSA NRS 194
Description: (§1) The data is given in supporting information (Table S5). Before starting the experiment, a single colony was picked from MHA plate, inoculated in MHBII and incubated overnight at 37 °C with shaking for 18–24 h to get the starter culture. Antibiotic susceptibility testing was conducted according to the CLSI (Clinical & Laboratory Standards Institute) guidelines using the broth microdilution assay. 10 mg/mL stock solutions of test compounds were prepared in DMSO. Bacterial cultures were inoculated in MHBII and optical density (OD) was measured at 600 nm, followed by dilution to achieve ~10^6 CFU/mL. The compounds were tested from 64 to 0.5 mg/L in two-fold serial diluted fashion with 2.5 μL of each concentration added to well of a 96-well round bottom microtiter plate. Later, 97.5 μL of bacterial suspension was added to each well containing either test compound or appropriate controls. […] The MIC is defined as the lowest concentration of the compound at which there is absence of visible growth. For each test compound, MIC determinations were carried out independently three times using duplicate samples.

S. aureus ATCC 29213 [3] = assay: Drug interaction study (chequerboard assay); format: cell-based
Description: All compounds were freshly prepared for the experiment. […] Following incubation, the fractional inhibitory concentration index (FICI) was calculated with the formula FICI = […], whereby FICA = MIC of drug A in combination/MIC of drug A alone and FICB = MIC of drug B in combination/MIC of drug B alone. A drug combination is considered synergistic when ∑FICI is ≤0.5, indifferent when ∑FICI is >0.5 to 4, and antagonistic when ∑FICI is >4.

MSSA ATCC 29213 = assay: Broth microdilution MIC, MSSA ATCC 29213; format: cell-based, S. aureus
Description: as §1

MRSA NRS 119 = assay: Broth microdilution MIC, MRSA NRS 119; format: cell-based, S. aureus; conditions: MRSA NRS 119
Description: as §1

[4] = test system: Galleria mellonella infection model; set-up: method as in PMID 34018686; conditions: systematic infection model; cited from earlier work
VRSA VRS 12 = assay: Broth microdilution MIC, VRSA VRS 12; format: cell-based, S. aureus; conditions: VRSA VRS 12
Description: as §1

B. subtilis 168CA = assay: Propidium iodide pore assay; format: cell-based, Bacillus subtilis; conditions: 3.125 µM Pt1, 25 µM Pt8; 30 and 60 min
Description: Propidium iodide staining was performed as described previously. B. subtilis 168CA was grown to an OD600 of 0.3 prior to splitting of the parent culture and treatment with the different antibiotics. After 15 and 45 min, samples were stained with 13.3 µg/mL propidium iodide for 15 min (total treatment times 30 and 60 min), and washed 3 times with phosphate-buffered saline (PBS). Fluorescence signals were recorded at an excitation wavelength of 535–15 nm and an emission wavelength of 617–20 nm in a BMG Clariostar Plus plate reader.

## C1=C\CC/C=C\CC/1.[Cl][Pt][Cl] [Pt1]
S. aureus ATCC 29213 [1]; 1x MIC
  PAE: ~ 5.5 h
  Time for 1 log10 increase in bacterial cfu count: ~ 8 h
S. aureus ATCC 29213 [1]; 5x MIC
  PAE: ~ 5.5 h
  Time for 1 log10 increase in bacterial cfu count: ~ 8 h
S. aureus ATCC 29213 [1]; 10x MIC
  PAE: ~ 5.5 h
  Time for 1 log10 increase in bacterial cfu count: ~ 8 h
Escherichia coli W3110
  Antibacterial activity against E. coli: > 100
[2]
  localization of RpoC: Neither protein showed a distinct phenotype
MRSA NRS 194
  MIC: 0.125 – 0.25 µg/mL and 0.33–0.67 µM
S. aureus ATCC 29213 [3]; antibiotic in combination with Pt1 / alone
  FIC B: 1
S. aureus ATCC 29213 [3]; combination with Pt1
  FIC (FICA+FICB): 2
S. aureus ATCC 29213 [3]; combination with Pt1, synergistic ≤0.5, indifferent >0.5 to 4, antagonistic >4
  Interference: no interaction
S. aureus ATCC 29213 [3]; compound alone, Table S8
  MIC: 0.125 µg/mL
MSSA ATCC 29213; MSSA ATCC 29213
  MIC: 0.67 µM
MSSA ATCC 29213; MSSA ATCC 29213, Table S5
  MIC: 0.25 µg/mL
MSSA ATCC 29213; S.aureus ATCC 29213 (unpassaged), Table S9
  MIC: 0.0625 µg/mL
MRSA NRS 119
  MIC: 0.125 – 0.25 µg/mL and 0.33–0.67 µM
[4]
  in vivo activity: no in vivo activity was observed
VRSA VRS 12
  MIC: 0.67 to 1.34 µM
B. subtilis 168CA
  propidium iodide (PI) uptake: Neither Pt1 nor Pt8 showed increased PI uptake
